Data: patent US7566789B2, “Benzimidazole derivatives” (Merck Patent GmbH, priority 2002, dated 2009)

Key:
factor Xa = factor Xa (Homo sapiens, UniProt P00742); assay: Inhibition of factor Xa (FXa-IC50); format: biochemical
Source text: The inhibition of factor Xa by the compounds according to the invention and the measurement of the anticoagulant and antithrombotic activity can be determined by conventional in-vitro or in-vivo methods. A suitable method is described, for example, by J. Hauptmann et al. in Thrombosis and Haemostasis 1990, 63, 220-223.
The inhibition of factor Xa can be measured, for example by the method of T. Hara et al. in Thromb. Haemostas. 1994, 71, 314-319.

TF/FVIIa = TF/FVIIa (Homo sapiens, UniProt P08709); assay: Inhibition of TF/factor VIIa (TF/FVIIa-IC50); format: biochemical
Source text: The inhibition of factor VIIa by the compounds according to the invention and the measurement of the anticoagulant and antithrombotic activity can be determined by conventional in-vitro or in-vivo methods. A conventional method for the measurement of the inhibition of factor VIIa is described, for example, by H. F. Ronning et al. in Thrombosis Research 1996, 84, 73-81.

Sequence of TF/FVIIa (P08709 213-466 limits assumed): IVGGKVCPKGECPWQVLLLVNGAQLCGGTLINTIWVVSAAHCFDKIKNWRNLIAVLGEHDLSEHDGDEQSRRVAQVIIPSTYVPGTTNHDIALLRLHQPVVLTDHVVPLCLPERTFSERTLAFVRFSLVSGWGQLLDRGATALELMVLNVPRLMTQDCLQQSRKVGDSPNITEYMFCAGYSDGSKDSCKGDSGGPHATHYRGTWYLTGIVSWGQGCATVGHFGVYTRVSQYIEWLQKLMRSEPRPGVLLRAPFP
Sequence of TF/FVIIa (P08709 61-212 limits assumed): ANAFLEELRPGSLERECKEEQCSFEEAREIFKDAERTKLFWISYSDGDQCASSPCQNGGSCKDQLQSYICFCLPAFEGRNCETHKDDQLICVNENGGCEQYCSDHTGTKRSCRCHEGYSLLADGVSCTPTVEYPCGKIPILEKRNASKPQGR
Sequence of TF/FVIIa (P13726 33-295 partner): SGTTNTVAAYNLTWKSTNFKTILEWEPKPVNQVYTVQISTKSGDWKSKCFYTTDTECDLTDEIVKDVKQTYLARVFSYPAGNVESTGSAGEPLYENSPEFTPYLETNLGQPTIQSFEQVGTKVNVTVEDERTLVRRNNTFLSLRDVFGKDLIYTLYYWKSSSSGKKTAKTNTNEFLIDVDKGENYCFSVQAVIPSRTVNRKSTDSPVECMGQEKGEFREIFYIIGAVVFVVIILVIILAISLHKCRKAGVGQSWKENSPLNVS
Sequence of factor Xa (P00742 235-488 limits assumed): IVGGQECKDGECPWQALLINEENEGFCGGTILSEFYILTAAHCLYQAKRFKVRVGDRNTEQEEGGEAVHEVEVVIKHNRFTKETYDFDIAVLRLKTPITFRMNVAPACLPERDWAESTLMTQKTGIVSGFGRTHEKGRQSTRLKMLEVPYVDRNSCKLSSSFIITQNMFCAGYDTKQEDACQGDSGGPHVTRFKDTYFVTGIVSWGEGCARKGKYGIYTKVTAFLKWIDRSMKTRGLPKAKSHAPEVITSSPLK
Sequence of factor Xa (P00742 41-179 limits assumed): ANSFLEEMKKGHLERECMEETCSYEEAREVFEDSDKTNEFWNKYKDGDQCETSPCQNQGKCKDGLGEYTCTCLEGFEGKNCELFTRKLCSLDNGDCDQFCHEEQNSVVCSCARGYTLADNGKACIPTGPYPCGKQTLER

Row | IC50 (factor Xa) [nM] | melting point | IC50 (TF/FVIIa) [nM] | Structure (SMILES)
1 | 230 | 200 °C (dec.) | 190 | O=C(Cc1ccc2[nH]c(-c3ccc(Cl)s3)nc2c1)Nc1ccc(N2CCOCC2=O)cc1 [AA, 2-[2-(5-chlorothiophen-2-yl)-1H-benzimidazol-5-yl]-N-[4-(3-oxomorpholin-4-yl)phenyl]acetamide]
2 | 120 |  | 130 | Cc1cc(NC(=O)Cc2ccc3[nH]c(-c4ccc(Cl)s4)nc3c2)ccc1N1CCOCC1=O [AB, 2-[2-(5-chlorothiophen-2-yl)-1H-benzimidazol-5-yl]-N-[3-methyl-4-(3-oxomorpholin-4-yl)phenyl]acetamide]
3 | 180 |  | 130 | O=C(Cc1ccc2[nH]c(-c3ccc(Cl)s3)nc2c1)Nc1ccc(-n2ccccc2=O)cc1 [AC, 2-[2-(5-chlorothiophen-2-yl)-1H-benzimidazol-5-yl]-N-[4-(2-oxopyridin-1-yl)phenyl]acetamide]
